{"source": "patent US20120046329A1", "about": "“MODULATORS OF NOD1 AND NOD2 SIGNALING, METHODS OF IDENTIFYING MODULATORS OF NOD1 AND NOD2 SIGNALING, AND USES THEREOF” (Sanford-Burnham Medical Research Institute, priority 2010, published 2012)", "key": {"[1]": {"test_system": "IKKγ/NEMO, MYD88, FLIP, CARD6, APAF1 or NLRC4 over-expression", "assay": "Gene transfection NF-κB luciferase, HEK 293T", "format": "cell-based, human"}, "TNF-α induced NF-κB": {"test_system": "TNF-α induced NF-κB", "assay": "TNF-α-induced NF-κB luciferase reporter counterscreen, HEK293T", "format": "cell-based, human"}, "[2]": {"assay": "Solubility in aqueous buffer"}, "NOD2 [3]": {"biological_target": "T1, NOD2 (Homo sapiens, UniProt Q9HC29)", "T1 sequence (Q9HC29 whole entry)": "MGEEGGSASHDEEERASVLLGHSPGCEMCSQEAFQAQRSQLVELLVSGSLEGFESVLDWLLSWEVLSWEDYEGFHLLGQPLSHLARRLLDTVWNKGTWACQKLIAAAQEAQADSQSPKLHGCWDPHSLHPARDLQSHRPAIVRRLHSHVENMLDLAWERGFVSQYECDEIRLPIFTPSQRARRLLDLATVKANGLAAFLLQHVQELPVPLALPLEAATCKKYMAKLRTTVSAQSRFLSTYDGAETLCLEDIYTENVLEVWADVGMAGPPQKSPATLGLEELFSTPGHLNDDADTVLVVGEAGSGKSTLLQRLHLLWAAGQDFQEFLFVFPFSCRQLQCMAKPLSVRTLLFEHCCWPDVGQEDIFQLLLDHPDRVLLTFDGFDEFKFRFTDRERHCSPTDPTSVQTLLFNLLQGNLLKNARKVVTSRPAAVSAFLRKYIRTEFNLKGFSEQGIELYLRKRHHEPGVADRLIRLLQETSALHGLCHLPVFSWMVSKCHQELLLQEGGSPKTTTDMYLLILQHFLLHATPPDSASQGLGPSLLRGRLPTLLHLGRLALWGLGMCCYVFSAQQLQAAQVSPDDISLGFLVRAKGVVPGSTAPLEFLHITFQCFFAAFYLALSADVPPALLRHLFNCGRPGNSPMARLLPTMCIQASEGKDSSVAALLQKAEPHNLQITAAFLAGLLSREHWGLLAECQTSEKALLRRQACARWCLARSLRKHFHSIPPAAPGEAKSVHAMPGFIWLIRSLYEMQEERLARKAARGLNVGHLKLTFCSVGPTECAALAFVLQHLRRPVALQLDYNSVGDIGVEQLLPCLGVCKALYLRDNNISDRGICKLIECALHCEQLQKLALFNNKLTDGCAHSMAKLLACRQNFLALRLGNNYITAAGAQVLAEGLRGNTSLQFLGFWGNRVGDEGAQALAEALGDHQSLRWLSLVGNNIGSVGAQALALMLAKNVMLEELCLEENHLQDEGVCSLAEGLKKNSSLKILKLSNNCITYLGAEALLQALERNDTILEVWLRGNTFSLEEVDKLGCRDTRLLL", "assay": "Subcellular fractionation of MCF-7 cells expressing tagged NOD2", "settings": "MCF-7, 5 μM, 24 h"}, "[4]": {"assay": "In vivo RACE assay (pharmacokinetics, IP dosing)", "design": "species or system wild type mice", "settings": "mice", "from_the_text": "In vivo RACE assay data was obtained for compound 1:\nin conjunction with quantitative bioanalytical analysis to test its pharmacokinetics in wild type mice. […]"}, "[5]": {"test_system": "noncanonical NF-κB activation induced by BAFF", "assay": "NF-κB luciferase in 697 pre-B leukemia cells, BAFF", "settings": "697 cells, 10 μM"}, "NOD2 [6]": {"biological_target": "T1, NOD2", "assay": "MDP-stimulated (NOD2-dependent) NF-κB reporter assay", "settings": "reporter cell lines with low and overexpressed NOD2"}, "[7]": {"test_system": "interferon response stimuli (RIG-I/MDA-5, IRF3)", "assay": "ISRE-driven luciferase reporter in HEK293T, poly(I:C), poly(dA:dT), Sendai virus", "settings": "5 μM"}, "[8]": {"assay": "Microsomal stability, human", "format": "in vitro ADME"}, "NOD2 [9]": {"biological_target": "T1, NOD2", "assay": "MDP-induced IL-8 secretion in MCF-7/NOD2 cells", "settings": "MCF-7 cells, ELISA"}, "[10]": {"test_system": "Fa2N-4 immortalized human hepatocytes", "assay": "Toxicity towards Fa2N-4 immortalized human hepatocytes", "format": "cell-based"}, "TLR1, 2, 4, 5, 6 and 8": {"test_system": "TLR1, 2, 4, 5, 6 and 8", "assay": "NF-κB SEAP reporter in PMA-differentiated THP.1 macrophages, TLR agonists", "format": "cell-based, human", "settings": "5 μM, 24 h"}, "NOD1": {"biological_target": "T2, NOD1 (Homo sapiens, UniProt Q9Y239)", "T2 sequence (Q9Y239 1-953)": "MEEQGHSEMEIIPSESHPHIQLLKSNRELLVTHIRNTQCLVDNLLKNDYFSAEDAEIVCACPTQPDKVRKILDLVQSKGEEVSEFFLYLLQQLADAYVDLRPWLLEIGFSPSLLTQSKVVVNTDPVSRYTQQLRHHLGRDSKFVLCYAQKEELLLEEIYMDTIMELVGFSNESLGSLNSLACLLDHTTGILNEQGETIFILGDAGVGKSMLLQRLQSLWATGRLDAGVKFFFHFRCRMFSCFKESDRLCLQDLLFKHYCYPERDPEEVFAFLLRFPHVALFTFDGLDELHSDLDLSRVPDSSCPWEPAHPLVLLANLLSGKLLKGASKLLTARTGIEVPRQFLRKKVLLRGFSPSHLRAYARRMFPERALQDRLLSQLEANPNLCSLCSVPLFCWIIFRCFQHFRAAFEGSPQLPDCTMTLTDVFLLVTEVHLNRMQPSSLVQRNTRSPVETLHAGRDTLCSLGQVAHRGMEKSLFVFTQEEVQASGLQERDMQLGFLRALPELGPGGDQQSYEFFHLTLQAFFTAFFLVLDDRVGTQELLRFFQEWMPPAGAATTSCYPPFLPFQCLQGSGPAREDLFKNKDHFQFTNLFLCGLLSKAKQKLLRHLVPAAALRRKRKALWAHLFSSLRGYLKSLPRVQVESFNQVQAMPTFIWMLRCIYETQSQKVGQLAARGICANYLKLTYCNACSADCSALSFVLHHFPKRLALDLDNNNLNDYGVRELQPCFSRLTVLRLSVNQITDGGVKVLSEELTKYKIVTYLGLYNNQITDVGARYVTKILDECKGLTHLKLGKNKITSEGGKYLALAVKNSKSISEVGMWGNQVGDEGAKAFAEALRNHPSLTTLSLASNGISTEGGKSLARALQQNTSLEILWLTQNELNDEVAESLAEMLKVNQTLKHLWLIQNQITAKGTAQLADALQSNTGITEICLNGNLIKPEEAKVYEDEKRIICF", "assay": "γ-tri-DAP-induced IkBα mRNA expression", "format": "cell-based"}, "[11]": {"assay": "Plasma protein binding, human", "format": "in vitro ADME", "settings": "for Plasma Protein Binding (% Bound): Human"}, "[12]": {"assay": "Microsomal stability, mouse", "format": "in vitro ADME"}}, "note": "Read-outs that look alike come from different tables or passages of the source."}
{"smiles": "Cc1ccc(S(=O)(=O)n2c(N)nc3ccccc32)cc1", "note": "[Compound 1]", "values": [{"measurement": "Impact on NF-κB in cells over-expressing IKKγ/NEMO, MYD88, FLIP, CARD6, APAF1 or NLRC4", "setting": "[1]", "value": "No significant impact"}, {"measurement": "IC50", "setting": "TNF-α induced NF-κB; Homo sapiens, HEK-293T, read-out: TNF-α IC50(μM)", "value": "> 20", "unit": "µM"}, {"measurement": "Activity on TNFα induced NF-κB (in words)", "setting": "TNF-α induced NF-κB; reporter assay, listed as CID1088438", "value": "selective"}, {"measurement": "Solubility", "setting": "[2]; aqueous buffer, pH 6.2, aqueous buffer", "value": 1.7, "unit": "µg/mL"}, {"measurement": "Solubility", "setting": "[2]; pH 5.0, aqueous buffer", "value": 2.0, "unit": "µg/mL"}, {"measurement": "Solubility", "setting": "[2]; pH 7.4, aqueous buffer", "value": 2.0, "unit": "µg/mL"}, {"measurement": "Solubility (in words)", "setting": "[2]; three pH levels", "value": "low"}, {"measurement": "NOD2 compartmentalization", "setting": "NOD2 [3]", "value": "No changes"}, {"measurement": "Tolerability", "setting": "[4]; IP", "value": "well tolerated"}, {"measurement": "Concentration (uM) 20 min", "setting": "[4]; IP 15 mg/kg", "value": "1.58 ± 0.06", "unit": "µM"}, {"measurement": "Concentration (uM) 120 min", "setting": "[4]; IP 15 mg/kg", "value": "0.12 ± 0.05", "unit": "µM"}, {"measurement": "Compound exposure (in words)", "setting": "[4]; IP 30 mg/kg and 15 mg/kg, T=20 min", "value": "significant compound exposure"}, {"measurement": "Concentration (uM) 20 min", "setting": "[4]; IP 30 mg/kg", "value": "5.24 ± 0.62", "unit": "µM"}, {"measurement": "Concentration (uM) 120 min", "setting": "[4]; IP 30 mg/kg", "value": "0.54 ± 0.04", "unit": "µM"}, {"measurement": "Effect on NF-κB activation induced by BAFF", "setting": "[5]", "value": "not inhibited"}, {"measurement": "Inhibition of MDP stimulated (NOD2-dependent) signaling", "setting": "NOD2 [6]", "value": "not inhibiting"}, {"measurement": "Effect on ISRE-driven reporter gene activity induced by other interferon response stimuli", "setting": "[7]", "value": "no inhibition"}, {"measurement": "Microsomal Stability (% Remaining at 1 hr)", "setting": "[8]; Human, 1 hr", "value": 41.78, "unit": "% Remaining"}, {"measurement": "Stability in microsomes (in words)", "setting": "[8]; human", "value": "moderate"}, {"measurement": "Permeability", "setting": "Permeability; pH 5.0", "value": 491, "unit": "×10⁻⁶ cm/s"}, {"measurement": "Permeability", "setting": "Permeability; pH 6.2", "value": 562, "unit": "×10⁻⁶ cm/s"}, {"measurement": "Permeability", "setting": "Permeability; pH 7.4", "value": 382, "unit": "×10⁻⁶ cm/s"}, {"measurement": "Permeability (in words)", "setting": "Permeability; three pH levels", "value": "high"}, {"measurement": "Activity on MDP induced (NOD2) mediated IL-8 release (in words)", "setting": "NOD2 [9]", "value": "inactivity"}, {"measurement": "Toxicity (LD50, μM)", "setting": "[10]", "value": "> 50", "unit": "µM"}, {"measurement": "Toxicity (LD50, μM)", "setting": "[10]; listed as MLS-0350096", "value": ">50", "unit": "µM"}, {"measurement": "Effect on NF-κB-inducible SEAP activity induced by TLR agonists", "setting": "TLR1, 2, 4, 5, 6 and 8", "value": "No inhibitory effects"}, {"measurement": "γ-tri-DAP-induced expression of IkBα at the mRNA level", "setting": "NOD1", "value": "inhibited"}, {"measurement": "Plasma Protein Binding (% Bound)", "setting": "[11]; 1 μM", "value": 97.74, "unit": "% Bound"}, {"measurement": "Plasma Protein Binding (% Bound)", "setting": "[11]; 10 μM", "value": 97.45, "unit": "% Bound"}, {"measurement": "Plasma protein binding (in words)", "setting": "[11]; human", "value": "high"}, {"measurement": "Microsomal Stability (% Remaining at 1 hr)", "setting": "[12]; Mouse, 1 hr", "value": 0.83, "unit": "% Remaining"}, {"measurement": "Stability in microsomes (in words)", "setting": "[12]; mouse", "value": "low"}]}
